Reference: US9328122B2, “7-substituted Hanfangichin B derivative, and preparation method and use thereof” (HANGZHOU BENSHENG PHARMACEUTICAL CO., LTD., priority 2012, dated 2016)
≈ marks a conversion by molar mass, not a printed value.

Legend:
[1] = test system: H9 (acute lymphoblastic leukemia) cells; experiment: MTT cell growth inhibition, leukemia cells; format: cell-based, human; details: Homo sapiens, H9, 72 h, MTT; for IC50: read-out: IC50; for IC90: read-out: IC90
Summary of the method: (§1)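 MTT read-out of viable cells after 72 h compound exposure at 37° C., 5% CO2; 6000 cells/well in RPMI-1640 + 10% FBS, dosed one day after seeding over a range of concentrations.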

[2] = test system: Jurkat (acute lymphoblastic leukemia) cells; experiment: MTT cell growth inhibition, leukemia cells; format: cell-based, human; details: Homo sapiens, Jurkat, 72 h, MTT; for IC50: read-out: IC50; for IC90: read-out: IC90
Summary of the method: as §1

[3] = test system: Kasumi-1 (acute myeloid leukemia M2 type) cells; experiment: MTT cell growth inhibition, leukemia cells; format: cell-based, human; details: for IC50 / IC90: Homo sapiens, Kasumi-1, 72 h, MTT; for IC50: read-out: IC50; for IC90: read-out: IC90
Summary of the method: as §1

[4] = test system: RPMI 8226 (multiple myeloma) cells; experiment: MTT cell growth inhibition, multiple myeloma cells; format: cell-based, human; details: Homo sapiens, RPMI 8226, 72 h, MTT; for IC50: read-out: IC50; for IC90: read-out: IC90
Summary of the method: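 RPMI 8226 myeloma cells, 6000 per well in RPMI-1640 with 10% FBS, were dosed with fangchinoline derivatives at several concentrations the day after seeding. Incubation ran 72 h at 37° C in 5% CO2, then viable cells were measured by MTT.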

[5] = test system: CNE (nasopharyngeal carcinoma) cells; experiment: MTT cell growth inhibition, solid tumor cells; format: cell-based, human; details: Homo sapiens, CNE, 72 h, MTT; for IC50: read-out: IC50; for IC90: read-out: IC90
Summary of the method: (§2)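 Human tumor cells seeded at 6000 per well grow 24 h in serum-supplemented (10% FBS) high-glucose DMEM. A 72 h incubation with graded compound doses at 37 °C follows, and MTT reports viable cell number.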

[6] = test system: PANC-1 (pancreatic cancer) cells; experiment: MTT cell growth inhibition, solid tumor cells; format: cell-based, human; details: Homo sapiens, PANC-1, 72 h, MTT; for IC50: read-out: IC50; for IC90: read-out: IC90
Summary of the method: as §2

[7] = test system: PC-3 (prostate cancer) cells; experiment: MTT cell growth inhibition, solid tumor cells; format: cell-based, human; details: Homo sapiens, PC-3, 72 h, MTT; for IC50: read-out: IC50; for IC90: read-out: IC90
Summary of the method: as §2

[8] = test system: SK-OV-3 (ovarian cancer) cells; experiment: MTT cell growth inhibition, solid tumor cells; format: cell-based, human; details: Homo sapiens, SK-OV-3, 72 h, MTT; for IC50: read-out: IC50; for IC90: read-out: IC90
Summary of the method: as §2

[9] = test system: A549 (human lung cancer) cells; experiment: MTT cell growth inhibition, solid tumor cells; format: cell-based; details: Homo sapiens, A549, 72 h, MTT; for IC50: read-out: IC50; for IC90: read-out: IC90
Summary of the method: as §2

[10] = test system: Becap-37 (human breast cancer) cells; experiment: MTT cell growth inhibition, solid tumor cells; format: cell-based; details: Homo sapiens, Becap-37, 72 h, MTT; for IC50: read-out: IC50; for IC90: read-out: IC90
Summary of the method: as §2

[11] = test system: Hela (human cervical cancer) cells; experiment: MTT cell growth inhibition, solid tumor cells; format: cell-based; details: for IC50 / IC90: Homo sapiens, Hela, 72 h, MTT; for IC50: read-out: IC50; for IC90: read-out: IC90
Summary of the method: as §2

[12] = test system: Hep G2 (human liver cancer) cells; experiment: MTT cell growth inhibition, solid tumor cells; format: cell-based; details: Homo sapiens, HepG2, Hep G2, 72 h, MTT; for IC50: read-out: IC50; for IC90: read-out: IC90
Summary of the method: as §2

[13] = test system: Hep-2 (laryngeal carcinoma) cells; experiment: MTT cell growth inhibition, solid tumor cells; format: cell-based; details: Homo sapiens, Hep-2, 72 h, MTT; for IC50: read-out: IC50; for IC90: read-out: IC90
Summary of the method: as §2

[14] = test system: MG-63 (osteosarcoma) cells; experiment: MTT cell growth inhibition, solid tumor cells; format: cell-based; details: Homo sapiens, MG-63, 72 h, MTT; for IC50: read-out: IC50; for IC90: read-out: IC90
Summary of the method: as §2

[15] = test system: MGC-803 (human gastric cancer) cells; experiment: MTT cell growth inhibition, solid tumor cells; format: cell-based; details: MGC-803, 72 h, MTT; for IC50: read-out: IC50; for IC90: read-out: IC90
Summary of the method: as §2

[16] = test system: RKO (human colon adenocarcinoma) cells; experiment: MTT cell growth inhibition, solid tumor cells; format: cell-based; details: Homo sapiens, RKO, 72 h, MTT; for IC50: read-out: IC50; for IC90: read-out: IC90
Summary of the method: as §2

[17] = test system: U87-MG (malignant glioma) cells; experiment: MTT cell growth inhibition, solid tumor cells; format: cell-based; details: Homo sapiens, U-87 MG, U87-MG, 72 h, MTT; for IC50: read-out: IC50; for IC90: read-out: IC90
Summary of the method: as §2

tumor = experiment: Antitumor activity compared with fangchinoline, overall statement; format: cell-based; details: tumor type not specified

COc1cc(OC)cc(C(=O)Oc2c(OC)cc3c4c2Oc2cc5c(cc2OC)CCN(C)[C@H]5Cc2ccc(cc2)Oc2cc(ccc2OC)C[C@@H]4N(C)CC3)c1 [BS-FC-311]
IC50 [1]: 1.2 µg/mL (≈ 1.55 µM) | IC90 [1]: 2 µg/mL (≈ 2.59 µM) | IC50 [2]: 0.51 µg/mL (≈ 0.66 µM) | IC90 [2]: 0.98 µg/mL (≈ 1.27 µM) | IC50 [3]: 0.57 µg/mL (≈ 0.737 µM) | IC90 [3]: 1.85 µg/mL (≈ 2.39 µM) | anti-Kasumi-1 activity increase over fangchinoline ([3]; relative to fangchinoline, Table 1): ~2 fold | IC50 [4]: 0.13 µg/mL (≈ 0.168 µM) | IC90 [4]: 0.49 µg/mL (≈ 0.634 µM) | IC50 [5]: 1.83 µg/mL (≈ 2.37 µM) | IC90 [5]: 5.04 µg/mL (≈ 6.52 µM) | IC50 [6]: 2.95 µg/mL (≈ 3.82 µM) | IC90 [6]: 4.8 µg/mL (≈ 6.21 µM) | IC50 [7]: 3.08 µg/mL (≈ 3.99 µM) | IC90 [7]: 8.39 µg/mL (≈ 10.9 µM) | IC50 [8]: 2.87 µg/mL (≈ 3.71 µM) | IC90 [8]: 3.96 µg/mL (≈ 5.12 µM) | IC50 [9]: 1.36 µg/mL (≈ 1.76 µM) | IC90 [9]: 4.38 µg/mL (≈ 5.67 µM) | IC50 [10]: 1.53 µg/mL (≈ 1.98 µM) | IC90 [10]: 3.03 µg/mL (≈ 3.92 µM) | IC50 [11]: 0.5 µg/mL (≈ 0.647 µM) | IC90 [11]: 2.89 µg/mL (≈ 3.74 µM) | anti-Hela activity increase over fangchinoline ([11]; relative to fangchinoline, Table 2): ~4 fold | IC50 [12]: 1.4 µg/mL (≈ 1.81 µM) | IC90 [12]: 2.76 µg/mL (≈ 3.57 µM) | IC50 [13]: 1.64 µg/mL (≈ 2.12 µM) | IC90 [13]: 4.85 µg/mL (≈ 6.28 µM) | IC50 [14]: 2 µg/mL (≈ 2.59 µM) | IC90 [14]: 4.37 µg/mL (≈ 5.65 µM) | IC50 [15]: 1.4 µg/mL (≈ 1.81 µM) | IC90 [15]: 4.79 µg/mL (≈ 6.2 µM) | IC50 [16]: 1.32 µg/mL (≈ 1.71 µM) | IC90 [16]: 3.24 µg/mL (≈ 4.19 µM) | IC50 [17]: 1.25 µg/mL (≈ 1.62 µM) | IC90 [17]: 3.8 µg/mL (≈ 4.92 µM) | antitumor activity compared with that of fangchinoline (tumor): significantly superior

COc1ccc2cc1Oc1ccc(cc1)C[C@H]1c3cc(c(OC)cc3CCN1C)Oc1c(OCc3cccc(F)c3F)c(OC)cc3c1[C@H](C2)N(C)CC3 [BS-FC-204]
IC50 [1]: 2.2 µg/mL (≈ 2.99 µM) | IC90 [1]: 3.7 µg/mL (≈ 5.04 µM) | IC50 [2]: 2.23 µg/mL (≈ 3.03 µM) | IC90 [2]: 3.86 µg/mL (≈ 5.25 µM) | IC50 [3]: 1.29 µg/mL (≈ 1.76 µM) | IC90 [3]: 3.16 µg/mL (≈ 4.3 µM) | IC50 [4]: 0.42 µg/mL (≈ 0.572 µM) | IC90 [4]: 1.58 µg/mL (≈ 2.15 µM) | IC50 [5]: 2.7 µg/mL (≈ 3.67 µM) | IC90 [5]: 5.2 µg/mL (≈ 7.08 µM) | IC50 [6]: 2.23 µg/mL (≈ 3.03 µM) | IC90 [6]: 6.85 µg/mL (≈ 9.32 µM) | IC50 [7]: 3.8 µg/mL (≈ 5.17 µM) | IC90 [7]: 6.39 µg/mL (≈ 8.7 µM) | IC50 [8]: 12.2 µg/mL (≈ 16.6 µM) | IC90 [8]: 16 µg/mL (≈ 21.8 µM) | IC50 [9]: 2.16 µg/mL (≈ 2.94 µM) | IC90 [9]: 3.94 µg/mL (≈ 5.36 µM) | IC50 [10]: 4.87 µg/mL (≈ 6.63 µM) | IC90 [10]: 7.89 µg/mL (≈ 10.7 µM) | IC50 [11]: 0.5 µg/mL (≈ 0.68 µM) | IC90 [11]: 1 µg/mL (≈ 1.36 µM) | IC50 [12]: 3.73 µg/mL (≈ 5.08 µM) | IC90 [12]: 7.96 µg/mL (≈ 10.8 µM) | IC50 [13]: 3.18 µg/mL (≈ 4.33 µM) | IC90 [13]: 8.31 µg/mL (≈ 11.3 µM) | IC50 [14]: 2.6 µg/mL (≈ 3.54 µM) | IC90 [14]: 3.5 µg/mL (≈ 4.76 µM) | IC50 [15]: 2.94 µg/mL (≈ 4 µM) | IC90 [15]: 8.5 µg/mL (≈ 11.6 µM) | IC50 [16]: 1.66 µg/mL (≈ 2.26 µM) | IC90 [16]: 2.95 µg/mL (≈ 4.01 µM) | IC50 [17]: 2.38 µg/mL (≈ 3.24 µM) | IC90 [17]: 9.1 µg/mL (≈ 12.4 µM) | antitumor activity compared with that of fangchinoline (tumor): significantly superior
